From US20120208809A1, “9H-PYRROLO[2,3-B: 5,4-C'] DIPYRIDINE AZACARBOLINE DERIVATIVES, PREPARATION THEREOF, AND THERAPEUTIC USE THEREOF” (SANOFI, priority 2009, published 2012)

Assays:
Pim-1 = target: T1, Pim-1 (Homo sapiens, UniProt P11309); experiment: TR-FRET assay of Pim kinase activity (phosphorylation of Bad Ser112), Pim-1; assay type: biochemical; settings: ATP 40 μM, read-out: IC50 Pim1
T1 construct: full-length human recombinant His6-labelled Pim-1, Pim-2 or Pim-3 protein; His6; made in house
Method in brief: (§1)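 Full-length His6-tagged human Pim-1, -2 or -3 phosphorylate full-length His6-Bad at 40 μM ATP; phospho-Ser112 detected by TR-FRET (Eu anti-phosphoBad, APC anti-His6), 665/615 nm ratio. Compounds run at 10 concentrations in duplicate, typically top 30 μM; IC50 from 4-parameter logistic fit.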

MOLM-13 = experiment: Cell viability assay (CellTiter-Blue), MOLM-13; assay type: cell-based; settings: Homo sapiens, read-out: EC50 MOLM-13 μM, MOLM-13 cells, read-out: EC50 MOLM-13 μM (myeloma)
Protocol: (§2) The representative compounds of the invention are also screened as regards their effects on cell proliferation and viability, using a variety of tumoral cell lines of human source, representative of different pathological indications. These cell lines include:
(§3) In order to measure the viability, the tumour cells are incubated in 96-well or 384-well format for 48, 72 or 96 hours, preferably 72 hours, with a compound of the invention at dilutions of a factor 3, with, in general, nine doses in total, the highest dose being equal to 10 μM or 30 μM. The cell viability is evaluated by adding CellTiter-Blue® (Promega, Madison, Wis., United States) for 4 hours and endpoint readings are taken using a SpectraMax Genmini EM plate reader (Molecular Devices, Sunnyvale, Calif., United States). The CellTiter-Blue® cell viability assay measures the ability of the cells in culture to reduce resazurin to resorufin, the intensity of the fluorescence signal being directly proportional to the number of live cells. The EC50 represents the concentration of compound that leads to a 50% reduction of the viability/proliferative expansion of the cells.

CDK1 = CDK1 (Homo sapiens, UniProt P06493); experiment: Biochemical results, IC50 CDK1
Pim-3 = target: T2, Pim-3 (Homo sapiens, UniProt Q86V86); experiment: TR-FRET assay of Pim kinase activity (phosphorylation of Bad Ser112), Pim-3; assay type: biochemical; settings: ATP 40 μM, read-out: IC50 Pim3
T2 construct: full-length human recombinant His6-labelled Pim-1, Pim-2 or Pim-3 protein; His6; made in house
Method in brief: as §1

MV4-11 = experiment: Cell viability assay (CellTiter-Blue), MV4-11; assay type: cell-based; settings: Homo sapiens, read-out: EC50 MV4-11 μM (acute myeloid leukemia), MV4-11 cells, read-out: EC50 MV4-11 μM (myeloma)
Protocol: as §2, §3

EOL-1 = experiment: Cell viability assay (CellTiter-Blue), EOL-1; assay type: cell-based; settings: Homo sapiens, EOL1, read-out: EC50 EOL-1 μM (eosinophilic leukaemia), EOL-1 cells, read-out: EC50 EOL-1 μM (lymphoma);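 further: EOL-1 is an acute myeloid eosinophilic leukaemia line not a lymphoma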
Text: as §2
Models of Haematological Cancers: • TF-1 (acute myelogenic leukaemia; AML M6 at the time of diagnosis); • K G-1 (AML; erythroleukaemia evolving into AML); • KG-1a (AML; subclone derived from immature KG-1); • EOL-1 (AML: eosinophilic leukaemia); • PL-21 (AML; M3); • ML-2 (AML; T-NHL evolving into T-ALL evolving into AML M4); • HL-60 (AML, M3); • Kasumi-1 (AML); • GDM-1 (AML); • K-562 (CML—chronic myelogenic leukaemia; blastic crisis); • JURL-MK1 (CML; blastic crisis); • DND-41 (T-ALL—T-cell acute lymphoblastic leukaemia); • Jurkat (T-ALL); NALM-6 (B-ALL B-cell ALL); • CEM (ALL; lymphosarcoma evolving into ALL); • Jeko-1 (B-NHL—B-cell non-Hodgkin lymphoma; lymphoma with coat cells derived from a large-cell variant in leukaemic transformation); • WSU-DLCL2 (B-NHL; diffuse lymphoma with large B cells); • RL (B-NHL; undifferentiated diffuse); • OCl-Ly10 (B-NHL); • DoHH-2 (B-NHL); • RPMI-8226 (MM—multiple myelomas); • JVM-2 (B-CLL—B-cell chronic lymphocytic leukaemia); and • JVM-3 (B-CLL).
as §3

Pim-2 = target: T3, Pim-2 (Homo sapiens, UniProt Q9P1W9); experiment: TR-FRET assay of Pim kinase activity (phosphorylation of Bad Ser112), Pim-2; assay type: biochemical; settings: ATP 40 μM, read-out: IC50 Pim2
T3 construct: full-length human recombinant His6-labelled Pim-1, Pim-2 or Pim-3 protein; His6; made in house
Method in brief: as §1

PLK1 = PLK1 (Homo sapiens, UniProt P53350); experiment: Biochemical results, IC50 PLK1
phosphoBAD (DND-41) = experiment: Level of phosphorylation of Bad by ELISA, DND-41 cell line; assay type: cell-based; settings: Homo sapiens, DND41, DND-41 cells, 3 hours at 37° C.
Protocol: The activity of the molecules is evaluated on the JEKO or DND-41 cell line by measuring the level of phosphorylation of Bad and the total Bad content, via the ELISA technique.
The JEKO or DND-41 cells are resuspended at a concentration of 500 000 cells per ml. The cells are then diluted in RPMI-1640 medium containing 20% foetal calf serum. 225 μl of cells are placed in a plate. Serial dilutions of the molecules are then performed (8 points, three-fold dilution, range started at 10 mM). Each dilution point is then diluted to 1/100 in medium. Next, 25 μl of each of the concentrations are added to the cells and then incubated for 3 hours at 37° C.
100 μl of the cells are transferred into a plate treated with poly-D-Lysine. The plate is then incubated for 5-10 minutes at 37° C. and then centrifuged for 5 minutes at 1500 rpm. A volume of 100 μl of 8% fixing solution (solution of formaldehyde in PBS buffer) is added to each of the wells. After covering with a self-adhesive film and a lid, the plate is incubated for 20 minutes at room temperature and then stored at 4° C. overnight.
Next, the liquid is removed and two successive washes are performed with washing buffer. 100 μl of quenching buffer are added, followed by incubating for 15 minutes at room temperature. After washing, 100 μl of […] at room temperature. After washing, 50 μl of primary antibody diluted to 1/250 for pBAD (Cell Signaling Cat#5284) and to 1/500 for Bad (MBL Cat#591) are added to each of the plates. Each plate is incubated for 2 hours at room temperature. After two washes, 50 μl of secondary antibody (diluted to 1/16) are added to the pBAD plate (tebu-bio ref; FE-021) and 50 μl of the HRP-conjugated IgG secondary antibody (Santa Cruz Cat #SC-2004; diluted to 1/1000) are added to the Bad plate. Incubation for 1 hour at room temperature is performed. Four washes with the washing solution are performed, followed by three washes with PBS. Finally, 100 μl of the developing solution are added, followed by incubation for 10 minutes. Finally, 100 μl of the quenching solution are added, before reading at 450 nm.

PLK1, sequence (P53350 whole entry, species assumed): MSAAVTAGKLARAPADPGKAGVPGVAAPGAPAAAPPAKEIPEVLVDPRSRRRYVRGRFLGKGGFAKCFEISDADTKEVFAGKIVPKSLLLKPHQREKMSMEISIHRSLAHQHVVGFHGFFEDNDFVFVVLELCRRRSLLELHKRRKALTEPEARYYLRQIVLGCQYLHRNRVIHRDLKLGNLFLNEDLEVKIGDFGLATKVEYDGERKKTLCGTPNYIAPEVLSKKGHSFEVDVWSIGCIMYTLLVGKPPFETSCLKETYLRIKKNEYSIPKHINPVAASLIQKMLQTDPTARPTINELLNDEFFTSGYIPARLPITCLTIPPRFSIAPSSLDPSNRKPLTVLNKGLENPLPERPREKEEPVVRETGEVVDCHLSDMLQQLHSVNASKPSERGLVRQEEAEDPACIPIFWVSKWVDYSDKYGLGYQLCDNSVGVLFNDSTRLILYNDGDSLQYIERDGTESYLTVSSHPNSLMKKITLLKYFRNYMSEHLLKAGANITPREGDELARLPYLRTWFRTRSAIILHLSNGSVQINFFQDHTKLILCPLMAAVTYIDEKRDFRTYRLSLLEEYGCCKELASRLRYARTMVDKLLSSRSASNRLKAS
T1 sequence (P11309 whole entry): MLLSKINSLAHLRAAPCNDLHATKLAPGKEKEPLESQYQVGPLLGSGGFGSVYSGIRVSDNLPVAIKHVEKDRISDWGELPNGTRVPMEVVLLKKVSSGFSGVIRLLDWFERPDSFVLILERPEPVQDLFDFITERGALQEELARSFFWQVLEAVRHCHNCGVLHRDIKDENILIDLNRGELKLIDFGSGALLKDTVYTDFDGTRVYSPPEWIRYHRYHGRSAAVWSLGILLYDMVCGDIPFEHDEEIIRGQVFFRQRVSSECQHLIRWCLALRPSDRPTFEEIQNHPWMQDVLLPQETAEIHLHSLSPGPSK
CDK1, sequence (P06493 whole entry, species assumed): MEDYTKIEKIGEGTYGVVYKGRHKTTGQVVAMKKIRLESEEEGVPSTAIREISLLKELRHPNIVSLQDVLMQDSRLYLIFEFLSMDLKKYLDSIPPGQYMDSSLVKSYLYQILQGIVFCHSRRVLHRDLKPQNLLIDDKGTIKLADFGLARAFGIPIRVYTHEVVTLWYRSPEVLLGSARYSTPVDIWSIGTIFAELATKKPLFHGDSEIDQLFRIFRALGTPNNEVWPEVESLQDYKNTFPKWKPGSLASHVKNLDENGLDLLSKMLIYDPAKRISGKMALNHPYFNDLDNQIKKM
CDK1, sequence (P14635 whole entry partner, species assumed): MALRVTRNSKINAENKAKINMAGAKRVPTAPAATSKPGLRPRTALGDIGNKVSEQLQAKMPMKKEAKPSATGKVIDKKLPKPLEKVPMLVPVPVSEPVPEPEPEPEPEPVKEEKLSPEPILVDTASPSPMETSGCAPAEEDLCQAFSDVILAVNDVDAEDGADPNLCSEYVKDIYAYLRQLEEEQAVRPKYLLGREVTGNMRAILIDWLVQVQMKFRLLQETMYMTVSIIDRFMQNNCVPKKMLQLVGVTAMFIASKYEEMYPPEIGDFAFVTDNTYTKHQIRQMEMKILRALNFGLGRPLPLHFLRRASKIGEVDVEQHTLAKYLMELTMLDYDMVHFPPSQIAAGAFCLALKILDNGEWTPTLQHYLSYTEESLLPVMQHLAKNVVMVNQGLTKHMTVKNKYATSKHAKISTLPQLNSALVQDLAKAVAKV
T3 sequence (Q9P1W9 whole entry): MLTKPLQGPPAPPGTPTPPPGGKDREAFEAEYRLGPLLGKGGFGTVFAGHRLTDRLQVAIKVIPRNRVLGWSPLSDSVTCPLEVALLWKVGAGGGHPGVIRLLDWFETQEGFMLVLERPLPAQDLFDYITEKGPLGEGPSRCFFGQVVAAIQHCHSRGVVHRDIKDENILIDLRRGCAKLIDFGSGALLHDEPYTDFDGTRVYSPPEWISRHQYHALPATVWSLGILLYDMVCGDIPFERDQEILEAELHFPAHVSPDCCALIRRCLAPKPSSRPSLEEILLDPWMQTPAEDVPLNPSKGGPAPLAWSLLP

| SMILES | IC50 (Pim-1) [nM] | EC50 (MOLM-13) [nM] | IC50 (CDK1) [nM] | IC50 (Pim-3) [nM] | EC50 (MV4-11) [nM] | IC50 (Pim-2) [nM] | IC50 (PLK1) [nM] | IC50 (phosphoBAD (DND-41)) [nM] | EC50 (EOL-1) [nM] |
| --- | --- | --- | --- | --- | --- | --- | --- | --- | --- |
| CN(C)CCCNC(=O)c1ccc(-c2c(F)cnc3[nH]c4cnc(-c5cccnc5)cc4c23)cc1 [Example 10, N-[3-(dimethylamino)propyl]-4-[3-fluoro-6-(pyridin-3-yl)-9H-pyrrolo[2,3-b:5,4-c′]dipyridin-4-yl]benzamide] | < 100 | 100 to 1000 | 1000 to 5000 | < 100 | 100 to 1000 | 100 to 1000 | 1000 to 5000 | – | 100 to 1000 |
| O=C(NCCCN1CCCC1)c1ccc(-c2c(F)cnc3[nH]c4cnc(-c5cccnc5)cc4c23)cc1 [Example 20, 4-[3-fluoro-6-(pyridin-3-yl)-9H-pyrrolo[2,3-b:5,4-c′]dipyridin-4-yl]-N-[3-(pyrrolidin-1-yl)propyl]benzamide] | < 100 | 100 to 1000 | 100 to 1000 | < 100 | – | 100 to 1000 | 100 to 1000 | – | 100 to 1000 |
| CN(C)CC(C)(C)CNC(=O)c1ccc(-c2c(F)cnc3[nH]c4cnc(-c5cccnc5)cc4c23)cc1 [Example 52, N-[3-(dimethylamino)-2,2-dimethylpropyl]-4-[3-fluoro-6-(pyridin-3-yl)-9H-pyrrolo[2,3-b:5,4-c′]dipyridin-4-yl]benzamide] | < 100 | – | 1000 to 5000 | < 100 | 100 to 1000 | 100 to 1000 | 100 to 1000 | 100 to 1000 | < 100 |
| O=C(NCCCN1CCOCC1)c1ccc(-c2c(F)cnc3[nH]c4cnc(-c5cccnc5)cc4c23)cc1 [Example 19, 4-[3-fluoro-6-(pyridin-3-yl)-9H-pyrrolo[2,3-b:5,4-c′]dipyridin-4-yl]-N-[3-(morpholin-4-yl)propyl]benzamide] | < 100 | 100 to 1000 | 1000 to 5000 | < 100 | – | 100 to 1000 | 100 to 1000 | – | 100 to 1000 |
| NCCNC(=O)c1ccc(-c2c(F)cnc3[nH]c4cnc(-c5cccnc5)cc4c23)cc1 [Example 28, N-(2-aminoethyl)-4-[3-fluoro-6-(pyridin-3-yl)-9H-pyrrolo[2,3-b:5,4-c′]dipyridin-4-yl]benzamide] | < 100 | – | 100 to 1000 | < 100 | 100 to 1000 | < 100 | 100 to 1000 | 1000 to 5000 | 100 to 1000 |
| CN(C)CCCN(C)C(=O)c1ccc(-c2c(F)cnc3[nH]c4cnc(-c5cccnc5)cc4c23)cc1 [Example 59, N-[3-(dimethylamino)propyl]-4-[3-fluoro-6-(pyridin-3-yl)-9H-pyrrolo[2,3-b:5,4-c′]dipyridin-4-yl]-N-methylbenzamide] | < 100 | – | 100 to 1000 | < 100 | 100 to 1000 | 100 to 1000 | 1000 to 5000 | 1000 to 5000 | 100 to 1000 |
| CN1CCC(CCNC(=O)c2ccc(-c3c(F)cnc4[nH]c5cnc(-c6cccnc6)cc5c34)cc2)CC1 [Example 61, 4-[3-fluoro-6-(pyridin-3-yl)-9H-pyrrolo[2,3-b:5,4-c′]dipyridin-4-yl]-N-[2-(1-methylpiperidin-4-yl)ethyl]benzamide] | < 100 | – | 1000 to 5000 | < 100 | 100 to 1000 | 100 to 1000 | 1000 to 5000 | 1000 to 5000 | 100 to 1000 |

The next lines start with results.

| IC50 (Pim-1) [nM] | EC50 (MOLM-13) [nM] | IC50 (CDK1) [nM] | IC50 (Pim-3) [nM] | EC50 (MV4-11) [nM] | IC50 (Pim-2) [nM] | IC50 (PLK1) [nM] | IC50 (phosphoBAD (DND-41)) [nM] | SMILES | EC50 (EOL-1) [nM] |
| --- | --- | --- | --- | --- | --- | --- | --- | --- | --- |
| < 100 | – | 1000 to 5000 | < 100 | 100 to 1000 | < 100 | 1000 to 5000 | < 100 | CC(CN(C)C)NC(=O)c1ccc(-c2c(F)cnc3[nH]c4cnc(-c5cccnc5)cc4c23)cc1 (stereo not shown) [Example 68, N-[1-(dimethylamino)propan-2-yl]-4-[3-fluoro-6-(pyridin-3-yl)-9H-pyrrolo[2,3-b:5,4c′]dipyridin-4-yl]benzamide] | < 100 |
| < 100 | – | 1000 to 5000 | < 100 | 100 to 1000 | 100 to 1000 | 100 to 1000 | 100 to 1000 | CN(CC1CCCCN1C)C(=O)c1ccc(-c2c(F)cnc3[nH]c4cnc(-c5cccnc5)cc4c23)cc1 (stereo not shown) [Example 64, 4-[3-fiuoro-6-(pyridin-3-yl)-9H-pyrrolo[2,3-b:5,4-c′]dipyridin-4-yl]-N-methyl-N-[(1-methylpiperidin-2-yl)methyl]benzamide] | 100 to 1000 |
| < 100 | – | 100 to 1000 | < 100 | 100 to 1000 | 100 to 1000 | 1000 to 5000 | 1000 to 5000 | CN(C)CCCCNC(=O)c1ccc(-c2c(F)cnc3[nH]c4cnc(-c5cccnc5)cc4c23)cc1 [Example 75, N-[4-(dimethylamino)butyl]-4-[3-fluoro-6-(pyridin-3-yl)-9H-pyrrolo[2,3-b:5,4-c′]dipyridin-4-yl]benzamide] | 100 to 1000 |
| < 100 | – | 1000 to 5000 | < 100 | 100 to 1000 | 100 to 1000 | 100 to 1000 | 100 to 1000 | CC(C)N(CCNC(=O)c1ccc(-c2c(F)cnc3[nH]c4cnc(-c5cccnc5)cc4c23)cc1)C(C)C [Example 66, N-[2-(dipropan-2-ylamino)ethyl]-4-[3-fluoro-6-(pyridin-3-yl)-9H-pyrrolo[2,3-b:5,4-c′]dipyridin-4-yl]benzamide] | < 100 |
| < 100 | – | 1000 to 5000 | < 100 | 100 to 1000 | 100 to 1000 | 100 to 1000 | 100 to 1000 | CC(CNC(=O)c1ccc(-c2c(F)cnc3[nH]c4cnc(-c5cccnc5)cc4c23)cc1)N1CCCC1 (stereo not shown) [Example 63, 4-[3-fluoro-6-(pyridin-3-yl)-9H-pyrrolo[2,3-b:5,4-c′]dipyridin-4-yl]-N-[2-(pyrrolidin-1-yl)propyl]benzamide] | 100 to 1000 |
